Eleven molecules from PubChem BioAssay (NCI) can be followed below.

Molecules are shown by their SMILES. Where “and” joins values, the source holds several entries; their conditions need not be identical. Equal entries are not always repeated.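 1) Cells in 96-well plates. 2) Compound, 48 h, 5 concentrations. 3) Linear interpolation between surrounding doses. 4) Unreached endpoint = highest concentration. Here, GI50 denotes the concentration required for 50% inhibition of growth. TGI: total growth inhibition.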

Test systems include SK-MEL-5 melanoma; HCT-116 colon; LOX IMVI melanoma; OVCAR-3 ovarian; MALME-3M melanoma; BT-549 breast; HOP-62 NSCLC; SF-268 CNS; NCI-H522 lung; NCI-H460 lung.
What all share (assay): DTP human tumour cell line panel, 48 h

As a reminder, the GI50 is the concentration that inhibits growth by half. In general, TGI refers to the concentration at which net growth stops. A lower TGI goes with greater sensitivity of the cells. Take `CCN(CCO)CCCOc1ccc2c(Nc3cc(CC(=O)Nc4cccc(F)c4)[nH]n3)ncnc2c1`: the GI50 in the assay with SK-MEL-5 melanoma is 19.8 µM; with HCT-116 colon, 9.63 µM; in the assay with LOX IMVI melanoma, 10.6 µM; in the assay on OVCAR-3 ovarian it was 10.9 µM; with MALME-3M melanoma, 8.04 µM; with BT-549 breast, 13 µM. Further, the GI50 was 16.3 µM in the assay on HOP-62 NSCLC; 9.62 µM with SF-268 CNS; 0.071 µM and 0.0456 µM with NCI-H460 lung. Besides, the TGI with SK-MEL-5 melanoma is 48.5 µM and > 3.51 µM; in the assay with HCT-116 colon, 34.6 µM and > 10 µM; in the assay on LOX IMVI melanoma, 32.2 µM and > 3.26 µM; with OVCAR-3 ovarian, 42.9 µM and > 4.07 µM; in the assay with MALME-3M melanoma, 26.8 µM; with BT-549 breast, 29.7 µM and > 3.6 µM. Besides, the TGI with HOP-62 NSCLC is more than 88.6 µM; with SF-268 CNS it was 32.2 µM and > 10 µM; in the assay with NCI-H522 lung, 37.2 µM and > 4.22 µM; with NCI-H460 lung, 21.3 µM and > 3.81 µM.

Regarding `Cc1ccc(S(=O)(=O)CC2(Br)CCc3ccccc3C2=O)cc1` (centres undefined), the TGI is 38.4 µM in the assay on SK-MEL-5 melanoma; more than 100 µM with HCT-116 colon; more than 100 µM in the assay with LOX IMVI melanoma; more than 100 µM in the assay with OVCAR-3 ovarian; 68.6 µM in the assay with MALME-3M melanoma; 41.1 µM in the assay with BT-549 breast. Moreover, the concentration for total growth inhibition (TGI) was more than 100 µM with HOP-62 NSCLC, 36.5 µM in the assay with SF-268 CNS, 32.7 µM with NCI-H522 lung and more than 100 µM in the assay with NCI-H460 lung.

`O=C1C(Br)=CC2(C=C1Br)CCNc1c(O)c3c4c(c12)=NCCC=4C=N3`: the total growth inhibition concentration (TGI) turned out to be 0.266 µM with SK-MEL-5 melanoma; 0.116 µM with HCT-116 colon; 0.254 µM in the assay on LOX IMVI melanoma; 0.0835 µM in the assay on OVCAR-3 ovarian; 0.0946 µM with MALME-3M melanoma; 0.507 µM with BT-549 breast. Besides, the concentration for total growth inhibition (TGI) in the assay on HOP-62 NSCLC stood at 5.34 µM; with SF-268 CNS, 1.18 µM; with NCI-H522 lung, 0.0542 µM; with NCI-H460 lung, 1.64 µM.

On to `COc1cc(/C=C/c2ccccn2)cc(OC)c1OC`, for which the TGI with SK-MEL-5 melanoma, with HCT-116 colon, with LOX IMVI melanoma, in the assay on OVCAR-3 ovarian, in the assay with MALME-3M melanoma and in the assay with BT-549 breast was more than 10 µM in each case. For the same molecule, the TGI with HOP-62 NSCLC, in the assay with SF-268 CNS, in the assay on NCI-H522 lung and with NCI-H460 lung was more than 10 µM in each case.

Regarding `O=C(Nc1ccccc1)Nc1ccc(Cl)c(Cl)c1`, the GI50 with SK-MEL-5 melanoma was 3.61 µM; in the assay with HCT-116 colon it was 3.03 µM; with LOX IMVI melanoma, 2.51 µM; in the assay on OVCAR-3 ovarian it was 2.44 µM; with MALME-3M melanoma, 2.86 µM; in the assay on BT-549 breast, 4.99 µM. For the same molecule, the GI50 was 5.84 µM with HOP-62 NSCLC, 4.76 µM in the assay with SF-268 CNS, 1.69 µM in the assay on NCI-H522 lung and 3.06 µM in the assay on NCI-H460 lung. Further, the total growth inhibition concentration (TGI) was 14.4 µM in the assay on SK-MEL-5 melanoma; more than 100 µM in the assay on HCT-116 colon; 16.3 µM in the assay on LOX IMVI melanoma; 8.76 µM with OVCAR-3 ovarian; 21.4 µM in the assay on MALME-3M melanoma; 85.9 µM in the assay with BT-549 breast. The concentration for total growth inhibition (TGI) in the assay with HOP-62 NSCLC is more than 100 µM; in the assay with SF-268 CNS it was more than 100 µM; with NCI-H522 lung, 7.67 µM; with NCI-H460 lung, more than 100 µM.

Take `COc1ccc(/C=C2\CCC(Cc3ccccc3)(CN(C)C)C2=O)cc1` (centres undefined): the total growth inhibition concentration (TGI) in the assay on SK-MEL-5 melanoma is 44.8 µM; in the assay with HCT-116 colon it was more than 100 µM; in the assay with LOX IMVI melanoma, 57.5 µM; in the assay with OVCAR-3 ovarian, more than 100 µM; in the assay on MALME-3M melanoma, more than 100 µM; in the assay on BT-549 breast it was more than 100 µM. For the same molecule, the concentration for total growth inhibition (TGI) with HOP-62 NSCLC is more than 100 µM; with SF-268 CNS, more than 100 µM; with NCI-H522 lung, more than 71.9 µM; with NCI-H460 lung, more than 100 µM.

With `CC(C)COC(c1ccc2c(c1)OCO2)C(C)Br` (centres undefined), the TGI was 36.4 µM in the assay on SK-MEL-5 melanoma; 38.7 µM in the assay on HCT-116 colon; 35.4 µM with LOX IMVI melanoma; 34.8 µM with OVCAR-3 ovarian; 36.1 µM in the assay with MALME-3M melanoma; more than 100 µM with BT-549 breast. The TGI is 77.9 µM in the assay on HOP-62 NSCLC, 59.7 µM in the assay with SF-268 CNS, 37.8 µM in the assay on NCI-H522 lung and 51.5 µM with NCI-H460 lung.

As to `COC(=O)C1(C)CCCC2(C)c3cc(OC)ccc3C(=O)C(Br)C12` (centres undefined), the TGI in the assay with SK-MEL-5 melanoma was more than 10 µM; with HCT-116 colon it was 7.23 µM; in the assay with LOX IMVI melanoma, more than 10 µM; with OVCAR-3 ovarian it was more than 10 µM; in the assay with MALME-3M melanoma, 9.71 µM; in the assay on BT-549 breast it was more than 10 µM. Also, the TGI in the assay with HOP-62 NSCLC is more than 10 µM; in the assay with SF-268 CNS, more than 10 µM; in the assay on NCI-H522 lung it was 5.25 µM; in the assay on NCI-H460 lung, more than 10 µM.

As to `O=c1[nH]c(SCc2ccccc2[N+](=O)[O-])nc2nc[nH]c12`, the TGI with SK-MEL-5 melanoma, with HCT-116 colon, with LOX IMVI melanoma, in the assay on OVCAR-3 ovarian, in the assay on MALME-3M melanoma and in the assay on BT-549 breast was more than 100 µM throughout. Moreover, the total growth inhibition concentration (TGI) in the assay on HOP-62 NSCLC, in the assay on SF-268 CNS, with NCI-H522 lung and in the assay with NCI-H460 lung was more than 100 µM in each case.

On to `Nc1ccc(C(=O)Nc2ccccc2N)cc1`, for which the TGI was 43.4 µM in the assay with SK-MEL-5 melanoma; more than 90.7 µM in the assay with HCT-116 colon; more than 75.8 µM with LOX IMVI melanoma; more than 100 µM in the assay with OVCAR-3 ovarian; 30.3 µM in the assay on MALME-3M melanoma; more than 100 µM in the assay on BT-549 breast. The TGI was more than 100 µM in the assay with HOP-62 NSCLC, more than 100 µM in the assay with SF-268 CNS, 47.2 µM in the assay with NCI-H522 lung and more than 100 µM in the assay with NCI-H460 lung.

Take `COC(=O)[C@]12CC[C@@H](C)[C@H](C)[C@@H]1C1=CC[C@@H]3[C@@]4(C)CC(=O)[C@H](O)[C@@](C)(CO)[C@@H]4C(=O)C[C@@]3(C)[C@]1(C)CC2`: the GI50 is 11.6 µM in the assay with SK-MEL-5 melanoma; 10.9 µM in the assay with HCT-116 colon; 12.2 µM in the assay on LOX IMVI melanoma; 11.6 µM in the assay with OVCAR-3 ovarian; 4.52 µM with MALME-3M melanoma; 11.3 µM with BT-549 breast. The GI50 in the assay on HOP-62 NSCLC is 13.3 µM; in the assay on SF-268 CNS it was 12.6 µM; in the assay on NCI-H522 lung it was 4.27 µM; in the assay on NCI-H460 lung it was 6.66 µM. In addition, the total growth inhibition concentration (TGI) turned out to be 23.9 µM with SK-MEL-5 melanoma; 23.3 µM in the assay on HCT-116 colon; 25.8 µM in the assay on LOX IMVI melanoma; 24.8 µM in the assay on OVCAR-3 ovarian; 22 µM with MALME-3M melanoma; 23.5 µM in the assay with BT-549 breast. In addition, the total growth inhibition concentration (TGI) was found to be 27.4 µM in the assay with HOP-62 NSCLC, 26.5 µM in the assay on SF-268 CNS, 22.1 µM in the assay with NCI-H522 lung and 22.6 µM in the assay with NCI-H460 lung.
